For data set [1], the target named is T1, PI 3-kinase beta (Homo sapiens, UniProt P42338). The data set is described as follows: Kinase Glo Luminescent Kinase Assay (Kglo), assay B. The settings on record: read-out: Assay B PI3Kβ IC50. The class given is biochemical. (Kinase-Glo reads ATP consumption through a luciferase reaction.)
Target sequence in this assay (P42338 whole entry): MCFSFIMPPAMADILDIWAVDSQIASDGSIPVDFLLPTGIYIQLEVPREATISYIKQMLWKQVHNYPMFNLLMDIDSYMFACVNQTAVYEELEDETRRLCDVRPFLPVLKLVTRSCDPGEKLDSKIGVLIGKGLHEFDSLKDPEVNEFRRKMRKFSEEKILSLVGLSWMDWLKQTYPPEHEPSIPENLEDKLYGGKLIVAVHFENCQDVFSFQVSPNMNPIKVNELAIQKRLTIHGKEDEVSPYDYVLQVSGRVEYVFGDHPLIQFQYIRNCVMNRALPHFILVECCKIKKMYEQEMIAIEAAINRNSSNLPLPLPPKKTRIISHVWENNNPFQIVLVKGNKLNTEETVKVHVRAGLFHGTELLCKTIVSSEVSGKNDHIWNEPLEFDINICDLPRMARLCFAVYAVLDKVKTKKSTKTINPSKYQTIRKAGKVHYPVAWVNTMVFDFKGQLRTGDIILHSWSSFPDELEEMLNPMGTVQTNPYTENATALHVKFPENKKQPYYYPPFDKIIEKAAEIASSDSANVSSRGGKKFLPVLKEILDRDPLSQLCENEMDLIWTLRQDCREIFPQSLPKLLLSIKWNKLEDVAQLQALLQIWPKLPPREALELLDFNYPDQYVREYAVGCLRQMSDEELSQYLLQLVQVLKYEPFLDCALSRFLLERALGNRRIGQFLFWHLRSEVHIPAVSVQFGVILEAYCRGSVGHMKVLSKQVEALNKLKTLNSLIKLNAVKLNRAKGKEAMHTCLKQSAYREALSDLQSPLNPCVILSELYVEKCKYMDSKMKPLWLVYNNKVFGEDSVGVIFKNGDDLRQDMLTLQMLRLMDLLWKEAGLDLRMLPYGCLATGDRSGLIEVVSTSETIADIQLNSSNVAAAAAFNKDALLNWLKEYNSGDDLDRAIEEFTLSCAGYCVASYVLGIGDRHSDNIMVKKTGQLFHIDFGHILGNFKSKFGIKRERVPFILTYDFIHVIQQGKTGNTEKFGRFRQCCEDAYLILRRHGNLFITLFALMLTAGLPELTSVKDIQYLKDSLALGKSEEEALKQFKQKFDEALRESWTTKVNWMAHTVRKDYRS
Target sequence in this assay (P27986 461-568 partner): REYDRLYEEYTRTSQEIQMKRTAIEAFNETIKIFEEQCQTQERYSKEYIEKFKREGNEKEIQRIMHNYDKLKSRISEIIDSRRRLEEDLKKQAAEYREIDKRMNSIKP
Protocol: Kinase Glo Luminescent Kinase Assay (Kglo) for Pb 3-Kinase Alpha (A), Pb 3-Kinase Beta (B), Vps34 (C), Pb 4-Kinase Beta (D)
The Kinase Glo Luminescent Kinase Assay (Promega, Madison/Wis., USA) is a homogeneous HTS method of measuring kinase activity by quantifying the amount of ATP remaining in solution following a kinase reaction.
L-α-phosphatidylinositol (PI), provided as 10 mg/ml solution in methanol, was transferred into a glass tube and dried under a nitrogen beam. It was then resuspended in 3% OctylGlucoside (1-0-n-octyl-beta-D-glucopyranoside) by vortexing and stored at 4° C. 5 μL of a mix of PI/OctylGlucoside with the PI 3-kinase alpha and PI 3-kinase beta subtypes, or Vps34 or PI 4-kinase beta were added. Kinase reactions were started by the addition of 5 μl of an ATP-mix containing in a final volume 10 μL 10 mM TRIS-HCl pH 7.5, 3 mM MgCl2, 50 mM NaCl, 0.05% CHAPS, 1 mM DTT and 1 μM ATP at room temperature.
All fits were performed with the program XLfit4 (ID Business Solutions, Guildford, UK).
The target of another data set is Vps34 (Homo sapiens, UniProt Q8NEB9). The data set is described as follows: Kinase Glo Luminescent Kinase Assay (Kglo), assay C. The class given is biochemical. The settings on record: read-out: Assay C VPS34 IC50.
In data set [2] the target is T2, PI 3-kinase gamma (Homo sapiens, UniProt P48736). Put plainly: TR-FRET Adapta assay, assay E. The data set is classed as biochemical. The following applies: read-out: Assay E PI3Kγ IC50.
A further data set concerns the target mTOR (Homo sapiens, UniProt P42345). Put plainly: Lanthascreen kinase binding assay, assay G. The following applies: read-out: Assay G mTOR IC50. Background: In TR-FRET formats the signal depends on donor and acceptor labels being close together.
Data set [3] has as its target T1, PI 3-kinase beta. The data set is described as follows: Cellular assay I1, p-Akt (S473) in Rat-1 cells, Surefire format. The data set is classed as cell-based. The settings on record: non-asterisked data: version I1 (Surefire format), Rat-1 cells; read-out: Assay I PI3Kβ IC50.
Target sequence in this assay (P42338 whole entry): as the sequence (P42338 whole entry) above
Target sequence in this assay (Q63787 whole entry partner): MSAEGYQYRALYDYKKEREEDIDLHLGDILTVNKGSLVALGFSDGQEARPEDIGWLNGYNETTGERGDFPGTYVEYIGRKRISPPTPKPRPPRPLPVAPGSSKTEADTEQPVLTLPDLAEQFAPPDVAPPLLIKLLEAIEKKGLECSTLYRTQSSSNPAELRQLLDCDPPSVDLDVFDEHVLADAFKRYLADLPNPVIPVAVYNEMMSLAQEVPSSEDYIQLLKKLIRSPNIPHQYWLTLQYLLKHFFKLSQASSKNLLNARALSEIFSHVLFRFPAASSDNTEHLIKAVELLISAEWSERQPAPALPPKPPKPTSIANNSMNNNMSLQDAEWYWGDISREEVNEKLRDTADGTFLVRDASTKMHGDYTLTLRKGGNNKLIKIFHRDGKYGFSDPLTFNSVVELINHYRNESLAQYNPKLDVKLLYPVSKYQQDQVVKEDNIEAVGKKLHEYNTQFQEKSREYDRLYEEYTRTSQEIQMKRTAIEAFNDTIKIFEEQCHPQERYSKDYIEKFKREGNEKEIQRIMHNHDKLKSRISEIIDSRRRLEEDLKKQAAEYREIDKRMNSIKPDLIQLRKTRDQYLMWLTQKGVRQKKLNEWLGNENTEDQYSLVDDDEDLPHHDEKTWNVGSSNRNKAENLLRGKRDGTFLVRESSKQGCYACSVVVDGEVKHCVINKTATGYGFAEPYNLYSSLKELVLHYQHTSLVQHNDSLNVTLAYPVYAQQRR
Data set [4] deals with T3, PI 3-kinase delta (Homo sapiens, UniProt O00329). The data set is described as follows: Cellular assay J1, p-Akt (S473) in Rat-1 cells, Surefire format. The class given is cell-based. The following applies: non-asterisked data: version J1 (Surefire format), Rat-1 cells; read-out: Assay J PI3Kδ IC50.
The target in data set [5] is T2, PI 3-kinase gamma. The data set is described as follows: Cellular U937 AKT assay K1 (MSD). The data set is classed as cell-based. The settings on record: U937 cells, K1 format; read-out: Assay K1 PI3Kγ IC50.
Data set [6] deals with IL-8-induced neutrophil shape change in human whole blood. The data set is described as follows: Whole blood neutrophil shape change assay (L). The settings on record: IL-8, human whole blood, read-out: Assay L WBSC IC50. The class given is cell-based.
Data set [7] has as its target T3, PI 3-kinase delta. The data set is described as follows: TR-FRET Adapta assay, assay F. The settings on record: read-out: Assay F PI3Kδ IC50.
Data set [8] can be described thus: Microsomal clearance assay (M). The settings on record: intrinsic clearance in rat liver microsomes.
Protocol: The experiments were performed in 96-well glass plates at 37° C. on an automated Tecan EVO platform. Test compounds at a concentration of 10 mM in pure DMSO were diluted 1:1000 in water to 10 μM. […] Reactions were initiated by the addition of 150 μL of a cofactor solution containing 2 mM NADPH.
Data set [9] concerns the target T4, PI 3-kinase alpha (Homo sapiens, UniProt P42336). Put plainly: Kinase Glo Luminescent Kinase Assay (Kglo), assay A. The data set is classed as biochemical. The following applies: read-out: Assay A PI3Kα IC50.
Target sequence in this assay (P42336 whole entry): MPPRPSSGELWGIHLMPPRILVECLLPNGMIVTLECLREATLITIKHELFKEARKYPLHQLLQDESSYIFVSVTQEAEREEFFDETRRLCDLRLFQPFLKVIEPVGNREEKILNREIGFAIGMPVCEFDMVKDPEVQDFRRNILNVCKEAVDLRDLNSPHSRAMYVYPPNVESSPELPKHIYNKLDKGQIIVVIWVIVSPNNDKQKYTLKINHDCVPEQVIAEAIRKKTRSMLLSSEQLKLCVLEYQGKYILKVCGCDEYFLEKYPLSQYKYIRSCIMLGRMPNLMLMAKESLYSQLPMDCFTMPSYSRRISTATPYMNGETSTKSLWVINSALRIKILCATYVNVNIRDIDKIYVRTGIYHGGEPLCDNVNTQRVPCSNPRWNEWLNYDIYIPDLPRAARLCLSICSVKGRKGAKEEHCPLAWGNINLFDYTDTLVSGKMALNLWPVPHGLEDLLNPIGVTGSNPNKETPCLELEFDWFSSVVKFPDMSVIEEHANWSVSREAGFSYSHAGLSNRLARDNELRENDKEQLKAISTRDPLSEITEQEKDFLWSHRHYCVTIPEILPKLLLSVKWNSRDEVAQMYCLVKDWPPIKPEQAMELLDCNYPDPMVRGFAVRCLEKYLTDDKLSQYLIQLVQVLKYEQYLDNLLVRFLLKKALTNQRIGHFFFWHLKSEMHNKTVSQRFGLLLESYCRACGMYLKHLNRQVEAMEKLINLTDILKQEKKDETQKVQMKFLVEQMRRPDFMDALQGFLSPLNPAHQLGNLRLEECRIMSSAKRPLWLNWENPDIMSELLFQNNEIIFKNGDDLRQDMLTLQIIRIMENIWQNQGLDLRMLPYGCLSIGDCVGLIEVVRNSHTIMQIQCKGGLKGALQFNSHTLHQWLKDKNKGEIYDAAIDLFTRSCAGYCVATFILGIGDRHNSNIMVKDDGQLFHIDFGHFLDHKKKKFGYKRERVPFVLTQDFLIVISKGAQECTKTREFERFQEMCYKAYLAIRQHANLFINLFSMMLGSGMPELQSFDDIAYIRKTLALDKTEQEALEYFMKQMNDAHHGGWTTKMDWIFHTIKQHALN
The target of the next data set is PI 4-kinase beta (Homo sapiens, UniProt Q9UBF8). The data set is described as follows: Kinase Glo Luminescent Kinase Assay (Kglo), assay D. The data set is classed as biochemical. The settings on record: read-out: Assay D PI4Kβ IC50.
The target of data set [10] is T4, PI 3-kinase alpha. Put plainly: Cellular assay H1, p-Akt (S473) in Rat-1 cells, Surefire format. The data set is classed as cell-based. The settings on record: non-asterisked data: version H1 (Surefire format), Rat-1 cells; read-out: Assay H PI3Kα IC50.
Target sequence in this assay (P42336 whole entry): as above
Target sequence in this assay (Q63787 whole entry partner): as the sequence (Q63787 whole entry partner) above

Counter-ions that a name gives are not always drawn. Like-named read-outs stand apart in the source and are kept apart here.

Broadly, the IC50 is the concentration that gives 50% inhibition.

T2 sequence (P48736 whole entry): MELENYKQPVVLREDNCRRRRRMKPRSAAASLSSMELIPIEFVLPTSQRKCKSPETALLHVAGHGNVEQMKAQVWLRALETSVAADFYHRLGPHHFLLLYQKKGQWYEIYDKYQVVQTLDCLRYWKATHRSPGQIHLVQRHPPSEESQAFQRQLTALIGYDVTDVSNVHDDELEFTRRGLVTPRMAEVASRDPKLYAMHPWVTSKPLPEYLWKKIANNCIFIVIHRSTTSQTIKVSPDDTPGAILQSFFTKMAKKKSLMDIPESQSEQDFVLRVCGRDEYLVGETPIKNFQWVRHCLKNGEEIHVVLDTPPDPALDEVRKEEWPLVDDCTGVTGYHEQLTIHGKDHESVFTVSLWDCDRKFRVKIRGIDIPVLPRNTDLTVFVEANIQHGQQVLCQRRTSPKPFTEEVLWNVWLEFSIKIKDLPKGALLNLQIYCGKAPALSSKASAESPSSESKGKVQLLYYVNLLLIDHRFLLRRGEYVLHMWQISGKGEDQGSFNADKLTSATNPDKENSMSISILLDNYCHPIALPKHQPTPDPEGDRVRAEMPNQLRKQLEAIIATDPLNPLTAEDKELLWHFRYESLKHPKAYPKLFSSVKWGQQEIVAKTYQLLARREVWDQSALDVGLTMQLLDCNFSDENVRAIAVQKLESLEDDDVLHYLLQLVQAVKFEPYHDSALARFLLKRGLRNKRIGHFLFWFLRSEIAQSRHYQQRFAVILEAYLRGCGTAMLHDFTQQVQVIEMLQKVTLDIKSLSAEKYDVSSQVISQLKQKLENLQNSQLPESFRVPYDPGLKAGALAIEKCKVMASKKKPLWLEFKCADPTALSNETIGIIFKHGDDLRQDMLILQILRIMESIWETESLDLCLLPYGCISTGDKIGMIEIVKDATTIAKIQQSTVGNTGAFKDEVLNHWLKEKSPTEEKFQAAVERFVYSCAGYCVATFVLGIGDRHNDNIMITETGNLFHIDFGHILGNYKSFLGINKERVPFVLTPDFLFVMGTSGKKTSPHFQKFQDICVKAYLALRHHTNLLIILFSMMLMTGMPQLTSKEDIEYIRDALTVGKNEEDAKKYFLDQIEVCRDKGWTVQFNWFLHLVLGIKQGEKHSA
Vps34, sequence (Q8NEB9 whole entry, species assumed): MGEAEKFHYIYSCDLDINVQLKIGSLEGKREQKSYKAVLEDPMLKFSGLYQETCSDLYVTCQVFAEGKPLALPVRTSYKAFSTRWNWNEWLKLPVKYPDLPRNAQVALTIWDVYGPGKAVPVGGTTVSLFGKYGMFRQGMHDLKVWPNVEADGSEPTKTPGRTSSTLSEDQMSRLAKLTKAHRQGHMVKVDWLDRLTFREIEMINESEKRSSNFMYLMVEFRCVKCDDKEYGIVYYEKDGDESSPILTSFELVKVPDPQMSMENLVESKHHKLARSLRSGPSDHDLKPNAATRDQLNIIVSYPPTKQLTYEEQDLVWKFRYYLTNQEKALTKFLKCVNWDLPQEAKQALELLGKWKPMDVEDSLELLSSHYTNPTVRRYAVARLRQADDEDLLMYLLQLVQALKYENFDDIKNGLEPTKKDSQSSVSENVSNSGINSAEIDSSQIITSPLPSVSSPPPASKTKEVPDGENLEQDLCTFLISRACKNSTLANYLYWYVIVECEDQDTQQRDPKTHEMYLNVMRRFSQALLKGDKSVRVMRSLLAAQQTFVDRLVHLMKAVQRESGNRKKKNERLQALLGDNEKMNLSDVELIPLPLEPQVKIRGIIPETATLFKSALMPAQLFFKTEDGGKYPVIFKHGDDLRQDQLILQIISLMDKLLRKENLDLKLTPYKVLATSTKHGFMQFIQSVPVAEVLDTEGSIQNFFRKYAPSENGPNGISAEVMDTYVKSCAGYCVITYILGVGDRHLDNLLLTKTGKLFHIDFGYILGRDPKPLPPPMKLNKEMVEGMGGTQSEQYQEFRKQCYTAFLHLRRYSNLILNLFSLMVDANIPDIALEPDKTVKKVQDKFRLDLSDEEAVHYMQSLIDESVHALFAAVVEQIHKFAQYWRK
Protocol for mTOR: Lanthascreen™ Kinase Binding Assay for mTOR (G)
Binding of an inhibitor to the kinase competes for binding with the tracer, resulting in a loss of FRET.
50 nL of compound dilutions were dispensed onto white 384-well small volume polystyrene plate.

Consider `Cc1ccc(S(=O)(=O)NC2CC3(CC(O)C3)C2)cc1-c1cnc(N)c(-c2cn(C)nc2C)n1` (single isomer, unassigned) [Example 9a, (R)-3-[5-Amino-6-(1,3-dimethyl-1H-pyrazol-4-yl)-pyrazin-2-yl]-N-(6-hydroxy-spiro[3.3]hept-2-yl)-4-methyl-benzenesulfonamide or (S)-3-[5-Amino-6-(1,3-dimethyl-1H-pyrazol-4-yl)-pyrazin-2-yl]-N-(6-hydroxy-spiro[3.3]hept-2-yl)-4-methyl-benzenesulfonamide], for which the IC50 on PI 3-kinase beta [1] is 540 nM; on Vps34, over 10000 nM; on PI 3-kinase gamma [2], 15 nM; at mTOR it was 8100 nM; on PI 3-kinase beta [3], over 10000 nM; on PI 3-kinase delta [4], 3530 nM. Further, the IC50 on PI 3-kinase gamma [5] was found to be 40 nM; in data set [6], 327 nM; at PI 3-kinase delta [7], 200 nM. In addition, the “Assay M RLM CI(int)” value in data set [8] was found to be 34 µL/min/mg.

In the case of `Cc1noc(-c2nc(-c3cc(S(=O)(=O)NCCC(C)(C)O)ccc3C)cnc2N)n1` [Example 3, 3-[5-Amino-6-(3-methyl-[1,2,4]oxadiazol-5-yl)-pyrazin-2-yl]-N-(3-hydroxy-3-methyl-butyl)-4-methyl-benzenesulfonamide], the IC50 is 600 nM on PI 3-kinase alpha [9]; 5880 nM on PI 3-kinase beta [1]; over 9100 nM at Vps34; over 9100 nM at PI 4-kinase beta; 46 nM on PI 3-kinase gamma [2]; over 9100 nM at mTOR. For the same compound, the IC50 stood at 1040 nM at PI 3-kinase alpha [10]; 8330 nM on PI 3-kinase beta [3]; 1170 nM at PI 3-kinase delta [4]; 394 nM on PI 3-kinase gamma [5]; 1110 nM in data set [6] (Homo sapiens, Neutrophil); 140 nM on PI 3-kinase delta [7].

In the case of `Cc1ccc(S(=O)(=O)NCCC(C)(C)O)cc1-c1cnc(N)c(-c2cn(C)nc2C)n1` [Example 12, 3-(5-Amino-6-(1,3-dimethyl-1H-pyrazol-4-yl)pyrazin-2-yl)-N-(3-hydroxy-3-methylbutyl)-4-methyl benzenesulfonamide], the IC50 on PI 3-kinase alpha [9] was 140 nM; at PI 3-kinase beta [1], 2650 nM; on Vps34 it was over 9100 nM; at PI 4-kinase beta, over 9100 nM; at PI 3-kinase gamma [2] it was 41 nM; at mTOR, over 9100 nM. Besides, the IC50 on PI 3-kinase alpha [10] is 4700 nM; at PI 3-kinase beta [3], over 10000 nM; at PI 3-kinase delta [4], 3410 nM; on PI 3-kinase gamma [5], 117 nM; in data set [6] (Homo sapiens, Neutrophil) it was 200 nM; at PI 3-kinase delta [7] it was 240 nM.

With `Cc1ccc(S(=O)(=O)N[C@H]2CC[C@H](O)CC2)cc1-c1cnc(N)c(-c2nc(C(C)C)no2)n1` [Example 23, 3-[5-Amino-6-(3-isopropyl-[1,2,4]oxadiazol-5-yl)-pyrazin-2-yl]-N-(4-hydroxy-cyclohexyl)-4-methyl-benzene sulfonamide], the IC50 is 390 nM on PI 3-kinase alpha [9]; over 9100 nM on PI 3-kinase beta [1]; over 9100 nM on Vps34; over 9100 nM at PI 4-kinase beta; 10 nM on PI 3-kinase gamma [2]; 6450 nM on mTOR. In addition, the IC50 worked out at 3010 nM on PI 3-kinase alpha [10]; 6460 nM at PI 3-kinase beta [3]; 1010 nM at PI 3-kinase delta [4]; 106 nM at PI 3-kinase gamma [5]; 447 nM in data set [6] (Homo sapiens, Neutrophil); 90 nM on PI 3-kinase delta [7].

In the case of `Cc1ccc(S(=O)(=O)N[C@H]2CC[C@H](O)CC2)cc1-c1cnc(N)c(-c2cnn(C)c2)n1` [Example 58, Trans-3-(5-Amino-6-(1-methyl-1H-pyrazol-4-yl)pyrazin-2-yl)-N-(-4-hydroxycyclohexyl)-4-methylbenzenesulfonamide], the IC50 is 490 nM at PI 3-kinase alpha [9]; 2930 nM on PI 3-kinase beta [1]; 3100 nM at Vps34; 5850 nM at PI 4-kinase beta; 19 nM on PI 3-kinase gamma [2]; over 9100 nM on mTOR. Also, the IC50 came to 8580 nM at PI 3-kinase alpha [10]; 2460 nM on PI 3-kinase delta [4]; 73 nM at PI 3-kinase gamma [5]; 385 nM in [6] (Homo sapiens, Neutrophil); 100 nM on PI 3-kinase delta [7]. Besides, the “Assay M RLM CI(int)” value in data set [8] stood at 14 µL/min/mg.

On to `Cc1ccc(S(=O)(=O)NCCC(C)(C)O)cc1-c1cnc(N)c(-n2cccn2)n1` [Example 62, 3-(5-Amino-6-(1H-pyrazol-1-yl)pyrazin-2-yl)-N-(3-hydroxy-3-methylbutyl)-4-methylbenzenesulfonamide], for which the IC50 is 680 nM on PI 3-kinase alpha [9]; 1010 nM at PI 3-kinase beta [1]; over 9100 nM on Vps34; 3680 nM on PI 4-kinase beta; 56 nM at PI 3-kinase gamma [2]; over 9100 nM on mTOR. For the same compound, the IC50 was found to be 1440 nM at PI 3-kinase alpha [10]; 970 nM on PI 3-kinase delta [4]; 110 nM at PI 3-kinase gamma [5]; 7910 nM in data set [6] (Homo sapiens, Neutrophil); 210 nM at PI 3-kinase delta [7]. Moreover, the “Assay M RLM CI(int)” value in [8] came to 155 µL/min/mg.

On to `Cc1cn(-c2nc(-c3cc(S(=O)(=O)NCCC(C)(C)O)ccc3C)cnc2N)cn1` [Example 63, 3-(5-Amino-6-(4-methyl-1H-imidazol-1-yl)pyrazin-2-yl)-N-(3-hydroxy-3-methylbutyl)-4-methylbenzenesulfonamide], for which the IC50 was 330 nM at PI 3-kinase alpha [9]; 3930 nM at PI 3-kinase beta [1]; over 9100 nM at Vps34; 7850 nM on PI 4-kinase beta; 68 nM on PI 3-kinase gamma [2]; 6500 nM on mTOR. The IC50 at PI 3-kinase alpha [10] stood at 2970 nM; on PI 3-kinase delta [4], 3250 nM; at PI 3-kinase gamma [5], 163 nM; in data set [6] (Homo sapiens, Neutrophil) it was 626 nM; at PI 3-kinase delta [7], 420 nM. The “Assay M RLM CI(int)” value in data set [8] amounted to 44 µL/min/mg.

`Cc1ccc(S(=O)(=O)N[C@H]2CC[C@@H](O)CC2)cc1-c1cnc(N)c(-c2cnn(C)c2)n1` [Example 75, 3-(5-Amino-6-(1-methyl-1H-pyrazol-4-yl)pyrazin-2-yl)-N-((1s,4s)-4-hydroxycyclohexyl)-4-methylbenzenesulfonamide]: the IC50 worked out at 470 nM on PI 3-kinase alpha [9]; 2480 nM at PI 3-kinase beta [1]; 7490 nM at Vps34; 7970 nM at PI 4-kinase beta; 56 nM at PI 3-kinase gamma [2]; 4510 nM at mTOR. The IC50 at PI 3-kinase alpha [10] is over 10000 nM; at PI 3-kinase delta [4] it was 7800 nM; at PI 3-kinase gamma [5], 91 nM; in [6] (Homo sapiens, Neutrophil), 830 nM; at PI 3-kinase delta [7], 240 nM. Moreover, the “Assay M RLM CI(int)” value in data set [8] was determined as 13 µL/min/mg.

`CCCn1cc(-c2nc(-c3cc(S(=O)(=O)NCCC(C)(C)O)ccc3C)cnc2N)cn1` [Example 119.25]: the IC50 at PI 3-kinase alpha [9] is 400 nM; on PI 3-kinase beta [1], 5780 nM; at Vps34, over 9100 nM; on PI 4-kinase beta, 4050 nM; on PI 3-kinase gamma [2], 31 nM; on mTOR it was 8740 nM. For the same compound, the IC50 came out at 1280 nM on PI 3-kinase alpha [10]; 4100 nM on PI 3-kinase beta [3]; 1200 nM at PI 3-kinase delta [4]; 65 nM on PI 3-kinase gamma [5]; 2090 nM in data set [6] (Homo sapiens, Neutrophil); 290 nM on PI 3-kinase delta [7].

For `Cc1ccc(-c2nc(-c3cc(S(=O)(=O)NCCC(C)(C)O)ccc3C)cnc2N)s1` [Example 119.44], the IC50 on PI 3-kinase alpha [9] is 120 nM; on PI 3-kinase beta [1], 1370 nM; at Vps34, over 9100 nM; on PI 4-kinase beta it was 760 nM; at PI 3-kinase gamma [2] it was 99 nM; on mTOR it was 3990 nM. In addition, the IC50 was 42 nM on PI 3-kinase gamma [5]; 7080 nM in [6] (Homo sapiens, Neutrophil); 40 nM at PI 3-kinase delta [7]. In addition, the “Assay M RLM CI(int)” value in data set [8] was 137 µL/min/mg.

`Cc1ccc(S(=O)(=O)NCCC(C)(C)O)cc1-c1cnc(N)c(-c2cnn(Cc3ccccc3)c2)n1` [Example 132, 3-(5-Amino-6-(1-benzyl-1H-pyrazol-4-yl)pyrazin-2-yl)-N-(3-hydroxy-3-methylbutyl)-4-methylbenzenesulfonamide hydrochloride]: the half-maximal inhibitory concentration (IC50) at PI 3-kinase alpha [9] was 180 nM; on PI 3-kinase beta [1], over 9100 nM; at Vps34, over 9100 nM; at PI 4-kinase beta, 2260 nM; at PI 3-kinase gamma [2], 17 nM; on mTOR it was over 9100 nM. Moreover, the IC50 at PI 3-kinase alpha [10] worked out at 1280 nM; on PI 3-kinase beta [3], 6050 nM; on PI 3-kinase delta [4], 350 nM; at PI 3-kinase gamma [5], 74 nM; in data set [6] (Homo sapiens, Neutrophil) it was 449 nM; on PI 3-kinase delta [7], 50 nM.

(Values after patent US10004732B2 (Novartis AG, priority 2014, dated 2018).)
